Laboratory results taken from PubChem BioAssay (NCI).
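96-well plates; 48 h exposure; 5 concentrations. Endpoints by linear interpolation between flanking doses. Not reached: highest tested concentration assigned. At the TGI there is no net growth.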

Legend:
Assay in all cases: growth of human tumour cells (NCI), 48 h
[1] = system: NCI/ADR-RES ovarian
[2] = system: MDA-N
[3] = system: UACC-257 melanoma
[4] = system: K-562 leukemia
[5] = system: RPMI-8226 leukemia
[6] = system: SK-MEL-5 melanoma
[7] = system: SNB-19 CNS
[8] = system: NCI-H460 lung
[9] = system: LOX IMVI melanoma
[10] = system: OVCAR-4 ovarian
[11] = system: U251 CNS
[12] = system: ACHN renal
[13] = system: SW-620 colon
[14] = system: HOP-62 NSCLC
[15] = system: SK-MEL-28 melanoma
[16] = system: OVCAR-5 ovarian
[17] = system: PC-3 prostate
[18] = system: SK-OV-3 ovarian
[19] = system: CCRF-CEM leukemia
[20] = system: UO-31 renal
[21] = system: NCI-H23 lung
[22] = system: T-47D breast
[23] = system: HOP-92 NSCLC
[24] = system: CAKI-1 renal
[25] = system: HCT-15 colon
[26] = system: MOLT-4 leukemia
[27] = system: UACC-62 melanoma
[28] = system: MCF7 breast
[29] = system: A549 NSCLC
[30] = system: HT29 colon
[31] = system: COLO 205 colon
[32] = system: TK-10 renal
[33] = system: 786-0 renal
[34] = system: SF-268 CNS
[35] = system: OVCAR-8 ovarian
[36] = system: IGROV1 ovarian
[37] = system: MDA-MB-231 breast
[38] = system: NCI-H522 lung
[39] = system: A498 renal
[40] = system: SK-MEL-2 melanoma
[41] = system: NCI-H226 lung
[42] = system: EKVX NSCLC
[43] = system: HCC-2998 colon
[44] = system: HCT-116 colon
[45] = system: SNB-75 CNS
[46] = system: KM12 colon
[47] = system: HL-60(TB) leukemia
[48] = system: SR leukemia
[49] = system: M14 melanoma
[50] = system: OVCAR-3 ovarian
[51] = system: MDA-MB-435
[52] = system: DU-145 prostate
[53] = system: SF-295 CNS
[54] = system: SN12C renal
[55] = system: MALME-3M melanoma
[56] = system: RXF 393 renal
[57] = system: SF-539 CNS
[58] = system: BT-549 breast

CN1C(=O)C2(C=CC(O)CC2)c2ccccc21 (stereo unspecified)
TGI [1]: > 100 µM | TGI [2]: > 100 µM | TGI [3]: > 100 µM | TGI [4]: > 100 µM | TGI [5]: > 100 µM | TGI [6]: > 100 µM | TGI [7]: > 100 µM | TGI [8]: > 100 µM | TGI [9]: > 100 µM | TGI [10]: > 100 µM | TGI [11]: > 100 µM | TGI [12]: > 100 µM | TGI [13]: > 100 µM | TGI [14]: > 100 µM | TGI [15]: > 100 µM | TGI [16]: > 100 µM | TGI [17]: > 100 µM | TGI [18]: > 100 µM | TGI [19]: > 100 µM | TGI [20]: > 100 µM | TGI [21]: > 100 µM | TGI [22]: > 100 µM | TGI [23]: > 100 µM | TGI [24]: > 100 µM | TGI [25]: > 100 µM | TGI [26]: > 100 µM | TGI [27]: > 100 µM | TGI [28]: > 100 µM | TGI [29]: > 100 µM | TGI [30]: > 100 µM | TGI [31]: > 100 µM | TGI [32]: > 100 µM | TGI [33]: > 100 µM | TGI [34]: > 100 µM | TGI [35]: > 100 µM | TGI [36]: > 100 µM | TGI [37]: > 100 µM | TGI [38]: > 100 µM | TGI [39]: > 100 µM | TGI [40]: > 100 µM | TGI [41]: > 100 µM | TGI [42]: > 100 µM | TGI [43]: > 100 µM | TGI [44]: > 100 µM | TGI [45]: > 100 µM | TGI [46]: > 100 µM | TGI [47]: > 100 µM | TGI [48]: > 100 µM | TGI [49]: > 100 µM | TGI [50]: > 100 µM | TGI [51]: > 100 µM | TGI [52]: > 100 µM | TGI [53]: > 100 µM | TGI [54]: > 100 µM

Cc1ccc(/C(O)=C/C(=O)C(=O)NC23CC4CC(CC(C4)C2)C3)cc1
TGI [2]: > 10 µM | TGI [3]: > 10 µM | TGI [4]: > 10 µM | TGI [5]: > 10 µM | TGI [6]: > 10 µM | TGI [9]: > 10 µM | TGI [10]: > 10 µM | TGI [55]: > 10 µM | TGI [13]: > 10 µM | TGI [14]: > 10 µM | TGI [15]: > 10 µM | TGI [17]: > 10 µM | TGI [18]: > 10 µM | TGI [19]: > 10 µM | TGI [21]: > 10 µM | TGI [22]: > 10 µM | TGI [23]: > 10 µM | TGI [24]: > 10 µM | TGI [25]: > 10 µM | TGI [26]: > 10 µM | TGI [27]: > 10 µM | TGI [28]: > 10 µM | TGI [29]: > 10 µM | TGI [30]: > 10 µM | TGI [31]: > 10 µM | TGI [32]: > 10 µM | TGI [33]: > 10 µM | TGI [34]: > 10 µM | TGI [56]: > 10 µM | TGI [35]: > 10 µM | TGI [37]: > 10 µM | TGI [42]: > 10 µM | TGI [43]: > 10 µM | TGI [45]: > 10 µM | TGI [46]: > 10 µM | TGI [47]: > 10 µM | TGI [48]: > 10 µM | TGI [49]: > 10 µM | TGI [51]: > 10 µM | TGI [52]: > 10 µM | TGI [53]: > 10 µM | TGI [54]: > 10 µM

CC(=O)NC1(c2cc3ccccc3s2)CCCCCC1
TGI [1]: > 100 µM | TGI [2]: > 100 µM | TGI [3]: > 100 µM | TGI [4]: 97.3 µM | TGI [6]: 66.7 µM | TGI [7]: > 100 µM | TGI [8]: > 100 µM | TGI [9]: > 100 µM | TGI [10]: > 100 µM | TGI [11]: > 100 µM | TGI [12]: > 100 µM | TGI [13]: > 100 µM | TGI [57]: > 100 µM | TGI [14]: > 100 µM | TGI [15]: > 100 µM | TGI [16]: > 100 µM | TGI [17]: 60.8 µM | TGI [18]: > 100 µM | TGI [19]: 52.6 µM | TGI [20]: > 100 µM | TGI [21]: > 100 µM | TGI [23]: > 100 µM | TGI [58]: > 100 µM | TGI [24]: > 100 µM | TGI [25]: > 100 µM | TGI [26]: 44.4 µM | TGI [27]: > 100 µM | TGI [28]: > 100 µM | TGI [29]: > 100 µM | TGI [30]: > 100 µM | TGI [31]: 50 µM | TGI [32]: > 100 µM | TGI [33]: > 100 µM | TGI [34]: 40.9 µM | TGI [56]: 80.6 µM | TGI [35]: > 100 µM | TGI [36]: > 100 µM | TGI [37]: > 100 µM | TGI [38]: 39.1 µM | TGI [39]: > 100 µM | TGI [40]: 53.2 µM | TGI [41]: > 100 µM | TGI [42]: 57.3 µM | TGI [43]: > 100 µM | TGI [44]: > 100 µM | TGI [45]: 92.2 µM | TGI [46]: > 100 µM | TGI [47]: 55.4 µM | TGI [48]: 93.1 µM | TGI [49]: > 100 µM | TGI [50]: 62.8 µM | TGI [51]: > 100 µM | TGI [52]: > 100 µM | TGI [53]: > 100 µM | TGI [54]: > 100 µM
